Measured values reported in US20250074911A1, “MACROCYCLIC BTK INHIBITORS” (Crossfire Oncology Holding B.V., priority 2021, published 2025).

Legend:
[1] = test system: REC-1 T474I cell lines; experiment: Cell proliferation assay REC-1 BTK T474I knock-in cells (ATPlite, 72 hours); assay type: cell-based; settings: Homo sapiens, Rec1; 72 hours; read-out: IC50 REC-1 T474I
Description: Cell proliferation assay Generation of BTK […] knock-in cell lines wt-REC-1 cell lines expressing mutant BTK were created at Synthego Corporation. Cell lines expressing BTK […] was generated via CRISPR/Cas9. Monoclonal REC-1 […] cell lines were obtained by single cell cloning. The mutation status of all cell lines was confirmed via sequencing. […] Luminescence was recorded on an Envision multimode reader. The cell signal at the start of incubation was recorded separately in order to distinguish between cell population growth and cell death. In addition, maximum growth was determined by incubation of a duplicate without compound in the presence of 0.3% DMSO. Percentage growth was used as the main y-axis signal.

[2] = molecular target: full-length BTK C481S enzyme (Homo sapiens (Human), UniProt Q06187, C481S); experiment: Biochemical kinase assay BTK C481S (IMAP)
Description: Biochemical kinase assay BTK […] To determine the inhibitory activity of compounds on BTK C481S enzyme activity, the IMAP® assay (Molecular Devices) was used. […] After pre-incubation of 1 hour in the dark at room temperature, fluorescein-labeled MBP-derived substrate peptide (Molecular Devices, cat. no. RP 7123) was added, followed by ATP to start the reaction. Final enzyme concentration was 1.2 nM final substrate concentration 50 nM, and final ATP concentration was 7 μM. The reaction was allowed to proceed for 2 hours at room temperature in the dark. The reaction was stopped by quenching with IMAP progressive binding solution according to the protocol of the manufacturer (Molecular Devices). Fluorescein polarization was measured on an Envision multimode reader (Perkin Elmer, Waltham, MA, U.S.A.). IC50 were calculated using XLfitTM5 software (ID Business Solutions, Ltd., Surrey, U.K.). Results of the BTK […] binding affinity are shown in Table 1 below. • IC50 BTK […]: […]

[3] = test system: wt-REC-1 mantle cell lymphoma cells; experiment: Cell proliferation assay wt-REC-1 (ATPlite, 72 hours); assay type: cell-based; settings: 72 h; read-out: IC50 wt-REC-1
Description: Results of the BTK […] binding affinity are shown in Table 1 below. • IC50 BTK […]: […] wt-REC-1 mantle cell lymphoma cells were purchased from American Type Culture Collection via Synthego Corporation (cat. no. CRL-3004, ATCC). […] Luminescence was recorded on an Envision multimode reader. The cell signal at the start of incubation was recorded separately in order to distinguish between cell population growth and cell death. In addition, maximum growth was determined by incubation of a duplicate without compound in the presence of 0.3% DMSO. Percentage growth was used as the main y-axis signal. IC50s were fitted by non-linear regression using IDBS XLfitTM5 using a 4-parameter logistic curve, yielding a maximum signal, minimum signal, hill-parameter and IC50. Results of the wt-REC-1 proliferation are shown in Table 1 below. • IC50 wt-REC-1: […]

[4] = molecular target: full-length wt-BTK enzyme (Homo sapiens (Human), UniProt Q06187); experiment: Biochemical kinase assay wt-BTK (IMAP)
Description: Biochemical kinase assay wt-BTK To determine the inhibitory activity of compounds on wt-BTK enzyme activity, the IMAP® assay (Molecular Devices) was used. […] After pre-incubation of 1 hour in the dark at room temperature, fluorescein-labeled MBP-derived substrate peptide (Molecular Devices, cat. no. RP 7123) was added, followed by ATP to start the reaction. Final enzyme concentration was 1.2 nM, final substrate concentration 50 nM, and final ATP concentration was 4 μM. The reaction was allowed to proceed for 2 hours at room temperature in the dark. The reaction was stopped by quenching with IMAP progressive binding solution according to the protocol of the manufacturer (Molecular Devices). Fluorescein polarization was measured on an Envision multimode reader (Perkin Elmer, Waltham, MA, U.S.A.). […] Results of the wt-BTK binding affinity are shown in Table 1 below. • IC50 wt-BTK: […]

[5] = test system: wt-TMD8 diffuse large B-cell lymphoma cells; experiment: Cell proliferation assay wt-TMD8 (ATPlite, 120 hours); assay type: cell-based; settings: B-cell; wt-TMD8 cells, 120 hours, ATPlite; read-out: IC50 wt-TMD8
Description: Cell proliferation assay wt-TMD8 diffuse large B-cell lymphoma cells were purchased from Tokyo Medical and Dental University and cultured in RPMI-1640 cell culture medium (cat. no. 61870036, Life Technologies), supplemented with 10% (v/v) heat-inactivated fetal bovine calf serum and 1% penicillin/[…]. 1600 cells per well (in 45 μl) were seeded in a white 384-well culture plate (cat. no. 781080, Greiner Bio-One) and allowed to rest for at least 5 hours at 37° C., 95% humidity, and 5% CO2. 5 μl compound solution was added to the cells and incubation was continued for 120 hours (5 days), followed by addition of 24 μl ATPlite 1Step™ (PerkinElmer, Groningen, The Netherlands) solution was added to each well. Luminescence was recorded on an Envision multimode reader. The cell signal at the start of incubation was recorded separately in order to distinguish between cell population growth and cell death. In addition, maximum growth was determined by incubation of a duplicate without compound in the presence of 0.3% DMSO. Percentage growth was used as the main y-axis signal.

Chain of full-length BTK C481S enzyme (Q06187 whole entry C481S): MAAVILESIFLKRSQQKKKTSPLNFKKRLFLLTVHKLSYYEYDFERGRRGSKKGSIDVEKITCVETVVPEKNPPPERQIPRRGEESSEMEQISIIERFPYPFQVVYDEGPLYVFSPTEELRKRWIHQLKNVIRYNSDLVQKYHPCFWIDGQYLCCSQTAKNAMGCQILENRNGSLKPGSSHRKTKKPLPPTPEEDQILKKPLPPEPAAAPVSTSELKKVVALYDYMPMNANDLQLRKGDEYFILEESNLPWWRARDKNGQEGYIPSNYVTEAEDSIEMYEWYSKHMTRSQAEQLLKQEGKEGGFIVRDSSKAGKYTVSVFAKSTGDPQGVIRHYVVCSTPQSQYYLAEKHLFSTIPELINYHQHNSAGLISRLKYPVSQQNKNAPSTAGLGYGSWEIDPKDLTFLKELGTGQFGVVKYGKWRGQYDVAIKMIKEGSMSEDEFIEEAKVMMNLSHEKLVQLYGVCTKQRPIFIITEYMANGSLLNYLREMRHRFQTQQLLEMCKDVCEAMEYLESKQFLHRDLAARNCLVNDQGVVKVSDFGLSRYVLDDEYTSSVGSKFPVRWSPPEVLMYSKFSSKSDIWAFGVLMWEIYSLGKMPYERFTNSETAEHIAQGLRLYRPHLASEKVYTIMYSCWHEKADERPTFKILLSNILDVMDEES
Chain of full-length wt-BTK enzyme (Q06187 whole entry): as the sequence (Q06187 whole entry C481S) above, with S481C counted along it

Row | IC50 [2] [nM] | IC50 [3] [nM] | IC50 [4] [nM] | IC50 [5] [nM] | SMILES | IC50 [1] [nM]
1 | < 5 | < 100 | < 5 | < 100 | CN1CC/C=C/c2cnc(N)c3c(-c4ccc(C(=O)Nc5cc(C(F)(F)F)ccn5)cc4)nn(c23)[C@@H]2CCC[C@H](C2)NC(=O)C1 [Example 30] | 100 to 500
2 | < 5 | 100 to 1000 | < 5 | < 100 | C[C@@H]1CCn2nc(-c3ccc(C(=O)Nc4cc(C(F)(F)F)ccn4)cc3)c3c(N)ncc(c32)/C=C/CN2CC[C@H]2C(=O)N1 [Example 55] | 500 to 10000
3 | < 5 | 100 to 1000 | 5 to 50 |  | C[C@@H]1CCn2nc(-c3ccc(C(=O)Nc4cc(C(F)(F)F)ccn4)cc3)c3c(N)ncc(c32)CCCCCCC(=O)N1 [Example 121] | 500 to 10000
4 | < 5 | 100 to 1000 | < 5 |  | Nc1ncc2c3c1c(-c1ccc(C(=O)Nc4cc(C(F)(F)F)ccn4)cc1)nn3[C@@H]1CCC[C@H](C1)NC(=O)CCCNC/C=C\C2 [Example 108] | 500 to 10000
5 | 5 to 50 | 1000 to 10000 | 5 to 50 |  | C[C@@H]1CCn2nc(-c3ccc(C(=O)Nc4cc(C(F)(F)F)ccn4)cc3)c3c(N)ncc(c32)CCCO[C@H](C)C(=O)N1 [Example 113] | 500 to 10000
6 | 50 to 500 | 1000 to 10000 | 50 to 500 |  | Nc1ncc2c3c1c(-c1ccc(C(=O)Nc4ccccn4)cc1)nn3[C@@H]1CCC[C@H](C1)C(=O)NCCCC/C=C/C2 [Example 87a] | 500 to 10000
7 | < 5 | 1000 to 10000 | < 5 |  | C[C@@H]1CCn2nc(-c3ccc(C(=O)Nc4cc(C(F)(F)F)ccn4)cc3)c3c(N)ncc(c32)/C=C/CNCCCC(=O)N1 [Example 67] | 500 to 10000
8 | 5 to 50 | 1000 to 10000 | 5 to 50 |  | C[C@@H]1CCn2nc(-c3ccc(C(=O)Nc4cc(C(F)(F)F)ccn4)cc3)c3c(N)ncc(c32)CC=CCCCCCC(=O)N1 [Example 111] | 500 to 10000
9 | < 5 | < 100 | < 5 |  | Nc1ncc2c3c1c(-c1ccc(C(=O)Nc4ccccn4)cc1)nn3[C@@H]1CCC[C@H](C1)NC(=O)CCCCC/C=C/C2 [Example 102a] | < 100
10 | 5 to 50 | 1000 to 10000 | 5 to 50 |  | Nc1ncc2c3c1c(-c1ccc(C(=O)Nc4ccccn4)cc1)nn3[C@@H]1CCC[C@H](C1)NC(=O)CC/C=C\C2 [Example 96b] | 500 to 10000
11 | 50 to 500 | 1000 to 10000 | 50 to 500 |  | Nc1ncc2c3c1c(-c1ccc(C(=O)Nc4ccccn4)cc1)nn3[C@@H]1CCC[C@H](C1)NC(=O)CCCC/C=C/C2 [Example 100a] | 500 to 10000
12 | 5 to 50 | 100 to 1000 | 5 to 50 |  | Nc1ncc2c3c1c(-c1ccc(C(=O)Nc4cc(C(F)(F)F)ccn4)cc1)nn3[C@@H]1CCC[C@H](C1)NC(=O)CCC/C=C/C2 [Example 94a] | 500 to 10000
13 | 5 to 50 | 100 to 1000 | 5 to 50 |  | Nc1ncc2n3c(nc(-c4ccc(C(=O)Nc5cc(C(F)(F)F)ccn5)cc4)c13)[C@@H]1CCC[C@H](C1)NC(=O)CCC/C=C/C2 [Example 133a] | 500 to 10000
14 | < 5 | 1000 to 10000 | < 5 |  | C[C@@H]1CCn2nc(-c3ccc(C(=O)Nc4cc(C(F)(F)F)ccn4)cc3)c3c(N)ncc(c32)/C=C/CN(C)CCCC(=O)N1 [Example 66] | 500 to 10000
15 | < 5 | 100 to 1000 | 5 to 50 |  | Nc1ncc2c3c1c(-c1ccc(C(=O)Nc4ccccn4)cc1)nn3[C@@H]1CCC[C@H](C1)C(=O)NCCCCCC/C=C\C2 [Example 93] | 500 to 10000
16 | 50 to 500 | 1000 to 10000 | 50 to 500 |  | Nc1ncc2c3c1c(-c1ccc(C(=O)Nc4ccccn4)cc1)nn3[C@@H]1CCC[C@H](C1)NC(=O)CCC/C=C/C2 [Example 99a] | 500 to 10000
17 | 5 to 50 | 100 to 1000 | 5 to 50 |  | Nc1ncc2c3c1c(-c1ccc(C(=O)Nc4ccccn4)cc1)nn3[C@@H]1CCC[C@H](C1)C(=O)NCCCCC/C=C/C2 [Example 88a] | 500 to 10000
18 | < 5 | 100 to 1000 | < 5 |  | C[C@@H]1CCn2nc(-c3ccc(C(=O)Nc4cc(C(F)(F)F)ccn4)cc3)c3c(N)ncc(c32)/C=C/CCCCCCC(=O)N1 [Example 62] | 500 to 10000
19 | 50 to 500 | 100 to 1000 | 50 to 500 |  | Nc1ncc2c3c1c(-c1ccc(C(=O)Nc4cc(C(F)(F)F)ccn4)cc1)nn3[C@@H]1CCC[C@H](C1)NC(=O)CCCC/C=C/C2 [Example 98a] | 500 to 10000
20 | 5 to 50 | 1000 to 10000 | 5 to 50 |  | C[C@@H]1CCn2nc(-c3ccc(C(=O)Nc4cc(C(F)(F)F)ccn4)cc3)c3c(N)ncc(c32)/C=C/CO[C@@H](C)C(=O)N1 [Example 58] | 500 to 10000
21 | < 5 | < 100 | < 5 |  | Nc1ncc2c3c1c(-c1ccc(C(=O)Nc4ccccn4)cc1)nn3[C@@H]1CCC[C@H](C1)NC(=O)CCCCCCC2 [Example 126] | 100 to 500
22 | 50 to 500 | 100 to 1000 | 5 to 50 |  | Nc1ncc2c3c1c(-c1ccc(C(=O)Nc4cc(C(F)(F)F)ccn4)cc1)nn3[C@@H]1CCC[C@H](C1)C(=O)NCCCC/C=C/C2 [Example 85a] | 500 to 10000
23 | < 5 | 100 to 1000 | < 5 | < 100 | Nc1ncc2c3c1c(-c1ccc(C(=O)Nc4cc(C(F)(F)F)ccn4)cc1)nn3[C@@H]1CCC[C@H](C1)NC(=O)CCCNC/C=C/2 [Example 15] | 
24 | 5 to 50 | 1000 to 10000 | 5 to 50 |  | Nc1ncc2c3c1c(-c1ccc(C(=O)Nc4cc(C(F)(F)F)ccn4)cc1)nn3[C@@H]1CCC[C@H](C1)NC(=O)CC/C=C/C2 [Example 95] | 500 to 10000
25 | 5 to 50 | 100 to 1000 | 5 to 50 |  | C[C@@H]1CCn2nc(-c3ccc(C(=O)Nc4cc(C(F)(F)F)ccn4)cc3)c3c(N)ncc(c32)CC=CCCCCC(=O)N1 [Example 110] | 500 to 10000
26 | 5 to 50 | 100 to 1000 | 5 to 50 |  | Nc1ncc2c3c1c(-c1ccc(C(=O)Nc4cc(C(F)(F)F)ccn4)cc1)nn3[C@@H]1CCC[C@H](C1)C(=O)NCCCCC/C=C/C2 [Example 89a] | 500 to 10000

Row | SMILES | IC50 [2] [nM] | IC50 [3] [nM] | IC50 [4] [nM] | IC50 [5] [nM] | IC50 [1] [nM]
27 | Nc1ncc2c3c1c(-c1ccc(C(=O)Nc4cc(C(F)(F)F)ccn4)cc1)nn3[C@@H]1CCC[C@H](C1)NC(=O)CCCCC/C=C/2 [Example 37] | < 5 | < 100 | < 5 | < 100 | < 100
